The target of assay [1] is T1, recombinant human ALK5 (TGF-βR1) protein (Homo sapiens, UniProt P36897).
T1 construct: purchased Life Technologies PR9075A
T1 sequence (P36897 34-503): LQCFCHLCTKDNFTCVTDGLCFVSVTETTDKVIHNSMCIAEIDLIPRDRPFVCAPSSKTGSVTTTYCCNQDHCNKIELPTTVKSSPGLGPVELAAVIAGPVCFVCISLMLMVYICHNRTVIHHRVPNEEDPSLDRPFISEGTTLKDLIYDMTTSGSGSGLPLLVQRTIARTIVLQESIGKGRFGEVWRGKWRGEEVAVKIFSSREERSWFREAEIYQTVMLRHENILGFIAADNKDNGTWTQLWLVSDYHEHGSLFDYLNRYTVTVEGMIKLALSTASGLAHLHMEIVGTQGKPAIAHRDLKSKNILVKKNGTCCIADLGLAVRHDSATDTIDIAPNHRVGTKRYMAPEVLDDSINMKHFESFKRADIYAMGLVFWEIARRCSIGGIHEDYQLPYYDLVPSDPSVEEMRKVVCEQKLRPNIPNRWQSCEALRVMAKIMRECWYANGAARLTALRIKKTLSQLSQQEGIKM
The experiment in a line: Biochemical ALK5 (TGF-βR1) assay to measure pKi (LANCE Ultra ULight kinase assay). The settings on record: apparent pKi from pIC50 by Cheng-Prusoff, read-out: ALK5 pKi (converted). Put shortly:
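Compounds (10 μM to 25 pM) preincubated 60 minutes at room temperature with enzyme, then reaction run 60 minutes at 37° C with ATP added as 125 μM (5× final). Stopped with EDTA plus Eu-anti-phospho-Topoisomerase 2-alpha (Thr1342) antibody, TR-FRET read at 665 nm; pIC50 converted to pKi via Cheng-Prusoff.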

Assay [2] has as its system TGF-β-stimulated SMAD3 phosphorylation in BEAS-2B cells. The experiment in a line: Cellular ALK5 potency assay, inhibition of TGF-β stimulated pSMAD3 formation in BEAS-2B cells. Conditions: Homo sapiens; inhibition of TGF-β stimulated pSMAD3 formation, BEAS-2B cells; read-out: BEAS2B pIC50 (converted). Type of assay: cell-based. The procedure, abridged: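 Cells seeded overnight; rinse with supplemented HBSS; compound 1 h at 37 °C; TGF-β 10 ng/mL final, 30 min; lyse; AlphaLISA acceptor and detector beads 2 h apart, read next day. Potency expressed as pIC50.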

For `Cc1cccc(-c2[nH]ncc2-c2ccc3nccc(C(=O)O)c3c2)n1` [Compound 1064, 6-[5-(6-methyl-2-pyridyl)-1H-pyrazol-4-yl]quinoline-4-carboxylic acid], in assay [1], the Ki was 3.98 to 31.6 nM. In assay [2], the IC50 was 1580 to 10000 nM.

`Cc1cccc(-c2nc3ccccn3c2-c2ccc3ncc(N4CCC(N5CCN(C)CC5)CC4)cc3n2)n1` [Compound 326, 7-[4-(4-methylpiperazin-1-yl)-1-piperidyl]-2-[2-(6-methyl-2-pyridyl)imidazo[1,2-a]pyridin-3-yl]-1,5-naphthyridine]: the Ki in assay [1] is 0.0398 to 0.316 nM. In addition, in assay [2], the IC50 is 25.1 to 158 nM.

Turning to `Cc1cccc(-c2[nH]cnc2-c2ccc3ncc(-c4nccc(C(=O)OC5CCNCC5)n4)cc3c2)n1` [Compound 1102, 4-piperidyl 2-[6-[5-(6-methyl-2-pyridyl)-1H-imidazol-4-yl]-3-quinolyl]pyrimidine-4-carboxylate], in assay [1], the Ki was 0.0398 to 0.316 nM. In assay [2], the IC50 was 200 to 1260 nM.

On to `Cc1cccc(-c2n[nH]cc2-c2ccc3ncc(NC(=O)CCN4CCN(C(C)C)CC4)cc3n2)n1` [Compound 530, 3-(4-isopropylpiperazin-1-yl)-N-[6-[3-(6-methyl-2-pyridyl)-1H-pyrazol-4-yl]-1,5-naphthyridin-3-yl]propanamide], for which, in assay [1], the Ki was 0.0398 to 0.316 nM. Also, the IC50 in assay [2] is 25.1 to 158 nM.

Regarding `Cc1cccc(-c2n[nH]cc2-c2ccc3ncc(N4CCC(N5CCCC5)C4)cc3n2)n1` (centres unmarked) [Compound 336, 2-[3-(6-methyl-2-pyridyl)-1H-pyrazol-4-yl]-7-(3-pyrrolidin-1-ylpyrrolidin-1-yl)-1,5-naphthyridine], the Ki in assay [1] was less than 0.0316 nM. For the same compound, the IC50 in assay [2] is 25.1 to 158 nM.

On to `Cc1cccc(-c2n[nH]cc2-c2ccc3ncc(-c4cnc5n4CCN5)cc3n2)n1` [Compound 681, 7-(6,7-dihydro-5H-imidazo[1,2-a]imidazol-3-yl)-2-[3-(6-methyl-2-pyridyl)-1H-pyrazol-4-yl]-1,5-naphthyridine], for which the Ki in assay [1] is less than 0.0316 nM. In addition, the IC50 in assay [2] is 25.1 to 158 nM.

With `Cc1cccc(-c2n[nH]cc2-c2ccc3ncc(-c4ccc[nH]4)cc3n2)n1` [Compound 591, 2-[3-(6-methyl-2-pyridyl)-1H-pyrazol-4-yl]-7-(1H-pyrrol-2-yl)-1,5-naphthyridine], the Ki in assay [1] was less than 0.0316 nM. Further, the IC50 in assay [2] was less than 20 nM.

Take `Cc1cccc(-c2[nH]cnc2-c2ccc3ncc(C4=CC[C@@H](NC(=O)[C@H]5CCCN5)CC4)cc3c2)n1` [Compound 777, (2R)-N-[(1S)-4-[6-[5-(6-methyl-2-pyridyl)-1H-imidazol-4-yl]-3-quinolyl]cyclohex-3-en-1-yl]pyrrolidine-2-carboxamide]: in assay [1], the Ki is 0.0398 to 0.316 nM. In assay [2], the IC50 was 25.1 to 158 nM.

Take `Cc1cccc(-c2n[nH]cc2-c2ccc3ncc(C4=CCCC4)cc3n2)n1` [Compound 88, 7-(cyclopenten-1-yl)-2-[3-(6-methyl-2-pyridyl)-1H-pyrazol-4-yl]-1,5-naphthyridine]: in assay [1], the Ki was less than 0.0316 nM. The IC50 in assay [2] was less than 20 nM.

Turning to `Cc1cccc(-c2[nH]cnc2-c2ccc3ncc(-c4cccc(C(=O)O)c4)cc3c2)n1` [Compound 794, 3-[6-[5-(6-methyl-2-pyridyl)-1H-imidazol-4-yl]-3-quinolyl]benzoic acid], the Ki in assay [1] is 0.0398 to 0.316 nM. The IC50 in assay [2] was 1580 to 10000 nM.

Take `CN[C@H]1CC[C@@H](OC(=O)c2cnc3ccc(-c4cn[nH]c4-c4cccc(C)n4)cc3c2)CC1` [Compound 1195, [4-(methylamino)cyclohexyl] 6-[5-(6-methyl-2-pyridyl)-1H-pyrazol-4-yl]quinoline-3-carboxylate]: in assay [1], the Ki was 0.0398 to 0.316 nM. The IC50 in assay [2] is 25.1 to 158 nM.

As for `Cc1cccc(-c2[nH]cnc2-c2ccc3ncc(NCC(=O)O)cc3c2)n1` [Compound 1162, 2-[[6-[5-(6-methyl-2-pyridyl)-1H-imidazol-4-yl]-3-quinolyl]amino]acetic acid], the Ki in assay [1] was 0.398 to 3.16 nM. In assay [2], the IC50 is 200 to 1260 nM.

With `Cc1cccc(-c2[nH]cnc2-c2ccc3ncc(-c4ccc(C(=O)OC[C@@H]5CCCN5)cn4)cc3c2)n1` [Compound 1163, [(2S)-pyrrolidin-2-yl]methyl 6-[6-[5-(6-methyl-2-pyridyl)-1H-imidazol-4-yl]-3-quinolyl]pyridine-3-carboxylate], the Ki in assay [1] is 0.0398 to 0.316 nM. Also, the IC50 in assay [2] was 25.1 to 158 nM.

Regarding `Cc1cccc(-c2n[nH]cc2-c2ccc3ncc(OCCN4CCN(C(C)C)CC4)cc3n2)n1` [Compound 241, 7-[2-(4-isopropylpiperazin-1-yl)ethoxy]-2-[3-(6-methyl-2-pyridyl)-1H-pyrazol-4-yl]-1,5-naphthyridine], the Ki in assay [1] is 0.0398 to 0.316 nM. Also, the IC50 in assay [2] is 200 to 1260 nM.

As to `Cc1cccc(-c2n[nH]cc2-c2ccc3ncc(CNC(C(=O)OC4CCCC4)c4ccccc4)cc3n2)n1` (centres unmarked) [Compound 684, cyclopentyl 2-[[6-[3-(6-methyl-2-pyridyl)-1H-pyrazol-4-yl]-1,5-naphthyridin-3-yl]methylamino]-2-phenyl-acetate], in assay [1], the Ki is 3.98 to 31.6 nM. The IC50 in assay [2] is 200 to 1260 nM.

Regarding `Cc1nc(-c2n[nH]cc2-c2ccc3ncc(-c4cn[nH]c4)cc3n2)ccc1F` [Compound 482, 2-[3-(5-fluoro-6-methyl-2-pyridyl)-1H-pyrazol-4-yl]-7-(1H-pyrazol-4-yl)-1,5-naphthyridine], the Ki in assay [1] is less than 0.0316 nM. In assay [2], the IC50 was less than 20 nM.

With `Cc1nc(-c2n[nH]cc2-c2ccc3ncc(-c4cnc5n4CCCN5)cc3n2)ccc1F` [Compound 123, 2-[3-(5-fluoro-6-methyl-2-pyridyl)-1H-pyrazol-4-yl]-7-(5,6,7,8-tetrahydroimidazo[1,2-a]pyrimidin-3-yl)-1,5-naphthyridine], the Ki in assay [1] was 0.0398 to 0.316 nM. Further, the IC50 in assay [2] is 25.1 to 158 nM.

Consider `Cc1cccc(-c2nc3ccccn3c2-c2ccc3ncc(-c4cnc5n4CCN5)cc3n2)n1` [Compound 23, 7-(6,7-dihydro-5H-imidazo[1,2-a]imidazol-3-yl)-2-[2-(6-methyl-2-pyridyl)imidazo[1,2-a]pyridin-3-yl]-1,5-naphthyridine], for which the Ki in assay [1] is less than 0.0316 nM. Further, the IC50 in assay [2] was 25.1 to 158 nM.

In the case of `Cc1cccc(-c2n[nH]cc2-c2ccc3ncc(C(=O)NCCN4CCOCC4)cc3n2)n1` [Compound 44, 6-[3-(6-methyl-2-pyridyl)-1H-pyrazol-4-yl]-N-(2-morpholinoethyl)-1,5-naphthyridine-3-carboxamide], the Ki in assay [1] was less than 0.0316 nM. In addition, the IC50 in assay [2] was 25.1 to 158 nM.

Take `Cc1cccc(-c2n[nH]cc2-c2ccc3ncc(N(C)CCN4CCOCC4)cc3n2)n1` [Compound 103, N-methyl-6-[3-(6-methyl-2-pyridyl)-1H-pyrazol-4-yl]-N-(2-morpholinoethyl)-1,5-naphthyridin-3-amine]: in assay [1], the Ki was 0.0398 to 0.316 nM. Besides, the IC50 in assay [2] is 25.1 to 158 nM.

Regarding `Cc1nc(-c2nc3ccccn3c2-c2ccc3ncc(NCCN4CCN(C(C)C)CC4)cc3c2)ccc1F` [Compound 620, 6-[2-(5-fluoro-6-methyl-2-pyridyl)imidazo[1,2-a]pyridin-3-yl]-N-[2-(4-isopropylpiperazin-1-yl)ethyl]quinolin-3-amine], the Ki in assay [1] is 0.0398 to 0.316 nM. Besides, the IC50 in assay [2] was 25.1 to 158 nM.

On to `Cc1cccc(-c2nc3ccccn3c2-c2ccc3ncc(-c4nc5n(n4)CCNC5)cc3n2)n1` [Compound 415, 2-[2-(6-methyl-2-pyridyl)imidazo[1,2-a]pyridin-3-yl]-7-(5,6,7,8-tetrahydro-[1,2,4]triazolo[1,5-a]pyrazin-2-yl)-1,5-naphthyridine], for which the Ki in assay [1] was 0.0398 to 0.316 nM. In assay [2], the IC50 is less than 20 nM.

For the origin of these results see patent US11590116B2 (THERAVANCE BIOPHARMA R&D IP, LLC, priority 2019, dated 2023).
